Patent US11931335B2, “Enhancing autophagy or increasing longevity by administration of urolithins or precursors thereof” (Amazentis SA, priority 2012, dated 2024)
Entries after “also recorded” stand apart in the source; their conditions may differ.

Assays:
aged C57BL/6J mice = assay: Locomotor activity by infrared detection in aged mice; format: in vivo, mouse; settings: 50 mg/kg/day, 34 weeks, 12 hour dark period, FIG. 23
Method: Locomotor activity may be also assessed by measuring animal movements using infrared detection. To determine the effects of urolithin A on spontaneous locomotor activity in aged animals, 16-month-old C57BL/6J mice were treated with either a standard rodent diet or a diet containing urolithin A mixed with food to reach a dosing of 50 mg/kg/day delivered to mice. Following 34 weeks of treatment with urolithin A, mice were placed in a locomotor activity monitoring system, TSE Systems. Infrared transmitters and receivers are placed in the x, y, and z axis. Interruption of the infrared beams in the x, y axis by the passage of the mouse, allows for a measurement of the horizontal movement (ambulation). Interruption of the infrared beams in the z axis by the mouse, allows for the measurement of rearing behavior. Each beam interruption results in one count being recorded. Total counts were measured for each 30 minute period over a two day period. The total counts observed during the 12 hour dark period, which corresponds to the time of highest activity in mice, were summed for each animal.

[1] = test system: C. elegans wild-type Bristol N2; assay: Oxygen consumption (Seahorse XF24) in aged C. elegans; format: in vivo
Method: C. elegans strains were cultured at 20° C. on nematode growth media (NGM) agar plates seeded with E. coli strain OP50. Strain used was wild-type Bristol N2 provided by the Caenorhabditis Genetics Center (University of Minnesota). Urolithin A was dissolved in DMSO. Animals were exposed to compounds from eggs on plates seeded with live OP50 bacteria. Control plates were prepared with the corresponding concentration of DMSO (0.1%).
The effect of urolithin A on mitochondrial activity in aged C. elegans (10 days old) was assessed by treating C. elegans with urolithin A for 10 days of adulthood, at which time oxygen consumption was measured using the Seahorse XF24 equipment (Seahorse Bioscience Inc., North Billerica, MA). […] Worms were transferred into 24-well standard Seahorse plates (#100777-004) (50 worms per well) and oxygen consumption was measured. The basal oxygen consumption of the worms was first measured over 30 minutes at 5-minute intervals (0 min, 5 min, 15 min, 20 min, 25 min, and 30 min) with 5 replicates per interval. Respiration rates were normalized to the exact number of worms per well determined after the completion of the experiment using a stereomicroscope. […] Uncoupled oxygen consumption was measured at 5-minute intervals (35 min, 40 min, 45 min, 50 min, 55 min, and 60 min) to permit measuring the mitochondrial function over time.

[2] = test system: C. elegans fed vps-34 RNAi; assay: Lifespan with RNAi against vps-34; format: in vivo; settings: 50 μM; vs empty vector; FIG. 10B
Method: (§1) Lifespan tests were performed as described. Mouchiroud L et al. (2011) Aging Cell 10:39-54. Briefly, worms were observed using a Nikon SMZ1500 stereomicroscope (Nikon, Melville, NY, USA). Briefly, 10 L4 worms were transferred on plates containing NGM medium with vehicle (DMSO 0.1%, final concentration) or urolithin A dissolved in DMSO (final concentration 50 μM) and seeded with E. coli RNAi clones as indicated. After 3 days (corresponding to day 0), newly developed 60-100 L4 worms were used per condition, scored and transferred to fresh plates every 3 days starting from day 1 (young adult worms). All lifespan experiments were performed at 20° C.
(§2) Survival analyses were performed using the Kaplan Meier method and the significance of differences between survival curves calculated using the log rank test. Differences between two groups were assessed using two-tailed t-tests. Analysis of variance, assessed by Bonferroni's multiple comparison test, was used when comparing more than two groups. The statistical software used was GraphPad Prism 5 (GraphPad Software, Inc.) and all p-values <0.05 were considered significant.
(§3) Gene silencing was carried out as previously described by using the RNA interference (RNAi) process. Mouchiroud L et al. (2011) Aging Cell 10:39-54. In C. elegans, RNAi is made by feeding. […]

[3] = test system: C. elegans fed bec-1 RNAi; assay: Lifespan with RNAi against bec-1; format: in vivo; settings: 50 μM; vs empty vector; FIG. 10C
Method: as §1, §2, §3

C57BL/6J mice = assay: Spontaneous running wheel activity in young mice; format: in vivo, mouse; settings: for increase over untreated controls in the cumulative distance covered: 55 mg/kg/day in food, 11 weeks
Method: To examine the effect of urolithin A treatment on activity and muscle function in mammals, 10-week-old C57BL/6J mice were treated with either a standard rodent diet or a diet containing urolithin A mixed with food to reach a dosing of 55 mg/kg/day delivered to the mice. Following 11 weeks of treatment with urolithin A, a 23 cm in diameter running wheel was placed in the cage of each mouse. Spontaneous exercise activity was measured over a five day period at 20 min intervals, allowing the capture of the circadian rhythm of the exercise activity.

liver of C57BL/6J mice = assay: Autophagy in liver of mice after oral urolithin A; format: in vivo, mouse; settings: oral 55 mg/kg/d in chow, 8 weeks
Method: To determine the ability of urolithin A to induce autophagy in vivo, healthy 10-week-old C57BL/6J mice were treated with either a standard rodent diet or a diet containing urolithin A mixed with food to reach a dosing of 55 mg/kg/day delivered to the mice. Following 8 weeks of treatment with urolithin A, mice were sacrificed and the liver of each animal was surgically isolated. The isolated livers were then placed in lysis buffer and prepared for western blot analysis.
Protein expression levels were examined for autophagy related proteins LC3-I and LC3-II (Cell Signaling antibody #4108), p62 (Cell Signalling antibody #5114), AMPKα (Cell Signaling antibody #2603), and p-AMPKα(Cell Signaling antibody #2531). The housekeeping protein, HSP90 (BD Transduction Laboratories antibody #610418) level was measured as a loading control. Each lane in the Western blot represents a protein sample for the liver of a single mouse, to permit observation of the effects aver a number of treated animals.

[4] = test system: eat-2(ad465) mutant C. elegans; assay: Lifespan assay, eat-2 mutant C. elegans; format: in vivo
Method: Lifespan assays were performed with (A) wild-type (N2), (B) sir-2.1(ok434) mutant, (C) aak-2(ok524), (D) daf-16(mu86), (E) eat-2(ad465) and (F) daf-2(e1370) mutant strains of C. elegans maintained during their full life on plates supplemented with either 50 μM of urolithin A or with a control treatment and seeded with OP50 bacteria. Control plates without urolithin A contained an equivalent concentration of DMSO. Worm lifespan assays were performed at 20° C.
eat-2 encodes a protein involved in pharyngeal pumping.

O=c1oc2cc(O)ccc2c2ccc(O)cc12 [Urolithin A, urolithin A]
increase in ambulation (aged C57BL/6J mice): 14%
increase in rearing (aged C57BL/6J mice): 25%
basal respiration, 10-day-old vs 1-day-old worms ([1]; 30 μM, FIG. 8D): normalizes the respiration rates
uncoupled (FCCP) respiration, area under the curve ([1]; 10-day-old worms, 30 μM urolithin A, 30-minute period, FIGS. 8A-8B): significantly increased uncoupled respiration
lifespan extension by urolithin A under vps-34 RNAi [2]: suppressed; also recorded: totally suppress the lifespan phenotype
lifespan extension by urolithin A under bec-1 RNAi [3]: suppressed; also recorded: totally suppress the lifespan phenotype
increase over untreated controls in the cumulative distance covered (C57BL/6J mice; final two days): 29%
increase over untreated controls in the cumulative distance covered (C57BL/6J mice; initial 3 days, FIG. 20): 25%
increase in spontaneous voluntary running on a running wheel (C57BL/6J mice; 55 mg/kg/day, five-day period, FIG. 20): at least 25%
p62 protein levels (liver of C57BL/6J mice): decreased
phosphorylated AMPKα / ratio of p-AMPKα/AMPKα (liver of C57BL/6J mice; 55 mg/kg/day): increased levels
ratio of LC3-II to LC3-I (liver of C57BL/6J mice; FIG. 19, 55 mg/kg/day): increased
increase in autophagy over control untreated mice based on the ratio of LC3-II/LC3-I (liver of C57BL/6J mice; average): approximately 400%
Median lifespan ([4]; 50 μM UA): 37 days
Lifespan extension compared to control (%) ([4]; 50 μM UA vs 1% DMSO): +76.2%
